Measured values taken from patent publication EP0021678B1, “1-Sulpho-2-oxoazetidine derivatives, their production and pharmaceutical compositions thereof” (Takeda Chemical Industries, Ltd., priority 1979, dated 1981).
Read-outs that look alike come from different tables or passages of the source.

Key:
Assay in all cases: Anti-bacterial test, minimum inhibitory concentration on agar
Type in all cases: cell-based
[1] = test system: Bordetella bronchiseptica Sagami; conditions: Bordetella bronchiseptica Sagami, medium B—TSA
Source text: (§1) The compound (I) thus obtained is useful as a drug, being active against certain gram-positive and gram-negative bacteria. By way of example, the compounds are active against the following micro-organisms.
(§2) The media and compounds employed in the anti-bacterial test are as follows: • Media: • TSA = Trypticase soy agar • [Baltimore Biologicals (U.S.A.)] • B-TSA = Blood trypticase soy agar • Compounds: • Compound A = Sodium 3-[2-(2-amino-4-thiazolyl)-2-methoxyiminoacetamido]-2-oxo-azetidine-1-sulphonate • Compound B = Sodium 3-[D(-)-N-(4-ethyl-2,3-dioxo-1-piperazinocarbonyl)-phenyl-glycin- amido]-2-oxoazetidine-1-sulphonate • Compound C = Sodium 3-[D(-)-N-(4-ethyl-2,3-dioxo-1-piperazinocarbonyl)phenylglycinamido]-3-methoxy-2-oxoazetidine-1-sulphonate • Compound D = Sodium 3-[2-(4-ethyl-2,3-dioxo-1-piperazinocarboxamido)-2-(2-amino-4-thiazolyl)-acetamido]-2-oxoazetidine-1-sulphonate • Compound E = Sodium 3-[DL-2-(4-ethyl-2,3-dioxo-1-piperazinocarboxamido)-2-thienylacetamido]-2-oxoazetidine-1-sulphonate • Compound F = Sodium 3-[D-2-(4-ethyl-2,3-dioxo-1-piperazinocarboxamido)-2-thienylacetamido]-2-oxoazetidine-1-sulphonate • Compound G = Sodium 3-[D-2-(4-n-octyl-2,3-dioxo-1-piperazinocarboxamido)-2-phenylacetamido]-2-oxoazetidine-1-sulphonate • Compound H = Sodium 3-[2-(4-n-octyl-2,3-dioxo-1-piperazinocarboxamido)-2-(2-amino-4-thiazolyl)-acetamido]-2-oxoazetidine-1-sulphonate • Compound I = Sodium 3-[D-2-[(2-oxo-3-furfurylideneaminoimidazolidin-1-yl)-carboxamido]-2-phenylacetamido]-2-oxoazetidine-1-sulphonate • Compound J = Sodium 3-[2-(4-n-octyl-2,3-dioxo-1-piperazinocarboxamido)-2-thienylacetamido]-2-oxoazetidine-1-sulphonate • Compound K = Sodium 3-[D-2-[[2-oxo-3-(thiophen-2-aidoimino)-imidazolidin-1-yl]-carboxamido]-2-phenylacetamido]-2-oxoazetidine-1-sulphonate • Compound L = Sodium 3-[2-[(2-oxo-3-furfurylideneaminoimidazolidin-1-yl)-carboxamido]-2-thienylacetamido]-2-oxoazetidine-1-sulphonate

[2] = test system: Streptococcus mitis America; conditions: Streptococcus mitis America, medium B—TSA
Source text: as §1, §2

[3] = test system: Proteus vulgaris IFO 3988
Source text: as §1, §2

[4] = test system: Staphylococcus aureus 308A—1; conditions: for Minimum inhibitory concentration: Staphylococcus aureus 308A—1, medium TSA
Source text: as §1, §2

[5] = test system: Streptococcus faecium IFO 3128; conditions: Streptococcus faecium IFO 3128, medium B—TSA
Source text: as §1, §2

Klebsiella pneumoniae DT = conditions: for MIC: read-out: Minimum inhibitory concentration
Source text: as §1, §2

[6] = test system: Proteus morganii IFO 3168; conditions: Proteus morganii IFO 3168, medium TSA; for MIC: Morganella morganii, IFO3168, read-out: Minimum inhibitory concentration
Source text: as §1, §2

[7] = test system: Citrobacter freundii IFO 12681; conditions: Citrobacter freundii IFO 12681, medium TSA
Source text: as §1, §2

[8] = test system: Pseudomonas aeruginosa IFO 3455; conditions: Pseudomonas aeruginosa IFO 3455, medium TSA
Source text: as §1, §2

[9] = test system: Streptococcus pyogenes E—14; conditions: for MIC: read-out: Minimum inhibitory concentration
Source text: as §1, §2

Escherichia coli T-7 = conditions: for Minimum inhibitory concentration: medium TSA
Source text: as §1, §2

[10] = test system: Corynebacterium diphtheriae Toronto; conditions: Corynebacterium diphtheriae Toronto, medium B—TSA; for MIC: read-out: Minimum inhibitory concentration
Source text: as §1, §2

Candida albicans TA = conditions: Candida albicans TA, medium TSA; for MIC: read-out: Minimum inhibitory concentration
Source text: as §1, §2

[11] = test system: Streptococcus pneumoniae Type I; conditions: for Minimum inhibitory concentration: Streptococcus pneumoniae Type I, medium B—TSA
Source text: as §1, §2

[12] = test system: Pseudomonas aeruginosa U 31; conditions: Pseudomonas aeruginosa U 31, medium TSA; for MIC: U31, read-out: Minimum inhibitory concentration
Source text: as §1, §2

[13] = test system: Proteus mirabilis IFO 3849; conditions: Proteus mirabilis IFO 3849, medium TSA; for MIC: IFO3849, read-out: Minimum inhibitory concentration
Source text: as §1, §2

[14] = test system: Serratia marcescens IFO 12648; conditions: Serratia marcescens IFO 12648, medium TSA; for MIC: IFO12648, read-out: Minimum inhibitory concentration
Source text: as §1, §2

[15] = test system: Acinetobacter calcoaceticus IFO 13006; conditions: Acinetobacter calcoaceticus IFO 13006, medium TSA
Source text: as §1, §2

[16] = test system: Streptococcus pyogenes S—8; conditions: Streptococcus pyogenes S—8, medium B—TSA; for MIC: read-out: Minimum inhibitory concentration
Source text: as §1, §2

[17] = test system: Enterobacter cloacae IFO 12937; conditions: Enterobacter cloacae IFO 12937, medium TSA; for MIC: IFO12937, read-out: Minimum inhibitory concentration
Source text: as §1, §2

Escherichia coli O—111 = conditions: medium TSA
Source text: as §1, §2

[18] = test system: Staphylococcus aureus 1840; conditions: Staphylococcus aureus 1840, medium TSA
Source text: as §1, §2

[19] = test system: Escherichia coli NIHJ JC—2; conditions: Escherichia coli NIHJ JC—2, medium TSA; for MIC: read-out: Minimum inhibitory concentration
Source text: as §1, §2

[20] = test system: Staphylococcus aureus FDA209P; conditions: Staphylococcus aureus FDA209P; for MIC: Staphylococcus aureus, FDA209P, read-out: Minimum inhibitory concentration
Source text: as §1, §2

[21] = read-out: Minimum inhibitory concentration
[22] = Klebsiella pneumoniae DT, medium TSA
[23] = Proteus vulgaris IFO 3988, medium TSA
[24] = Streptococcus pyogenes E—14, medium B—TSA

SMILES: CCCCCCCCN1CCN(C(=O)NC(C(=O)NC2CN(S(=O)(=O)O)C2=O)c2csc(N)n2)C(=O)C1=O (stereo not shown) [Compound H, Sodium 3-[2-(4-n-octyl-2,3-dioxo-1-piperazinocarboxamido)-2-(2-amino-4-thiazolyl)-acetamido]-2-oxoazetidine-1-sulphonate]
- MIC [1, 21]: > 100 µg/mL
- MIC [2, 21]: 25 µg/mL
- MIC ([3]; IFO3988, Proteus vulgaris IFO 3988, medium TSA, read-out: Minimum inhibitory concentration): 6.25 µg/mL
- MIC ([4]; Staphylococcus aureus, read-out: Minimum inhibitory concentration): 3.13 µg/mL
- MIC ([5]; Enterococcus faecium, IFO3128, read-out: Minimum inhibitory concentration): > 100 µg/mL
- MIC (Klebsiella pneumoniae DT; [22]): 12.5 µg/mL
- MIC [6]: 6.25 µg/mL
- MIC ([7]; IFO12681, read-out: Minimum inhibitory concentration): 12.5 µg/mL
- MIC ([8]; IFO3455, read-out: Minimum inhibitory concentration): 12.5 µg/mL
- MIC ([9]; Streptococcus pyogenes): 3.13 µg/mL
- MIC (Escherichia coli T-7; T7, medium TSA): > 100 µg/mL
- MIC [10]: 0.78 µg/mL
- MIC (Candida albicans TA): > 100 µg/mL
- MIC ([11]; Streptococcus pneumoniae, read-out: Minimum inhibitory concentration): 3.13 µg/mL
- MIC [12]: 50 µg/mL
- MIC [13]: 25 µg/mL
- MIC [14]: 12.5 µg/mL
- MIC ([15]; IFO13006, read-out: Minimum inhibitory concentration): 50 µg/mL
- MIC [16]: 1.56 µg/mL
- MIC [17]: 50 µg/mL
- MIC (Escherichia coli O—111): 3.13 µg/mL
- MIC [18, 21]: 12.5 µg/mL
- MIC [19]: 12.5 µg/mL
- MIC ([20]; medium B—TSA): 12.5 µg/mL
- MIC ([20]; medium TSA): 6.25 µg/mL

SMILES: CCN1CCN(C(=O)NC(C(=O)NC2CN(S(=O)(=O)[O-])C2=O)c2cccs2)C(=O)C1=O.[Na+] (racemic) [Compound E, Sodium 3-[DL-2-(4-ethyl-2,3-dioxo-1-piperazinocarboxamido)-2-thienylacetamido]-2-oxoazetidine-1-sulphonate]
- Minimum inhibitory concentration [1]: >100 µg/mL
- Minimum inhibitory concentration [2]: 25 µg/mL
- Minimum inhibitory concentration [3, 23]: <0.1 µg/mL
- Minimum inhibitory concentration [4]: 6.25 µg/mL
- Minimum inhibitory concentration [5]: >100 µg/mL
- Minimum inhibitory concentration (Klebsiella pneumoniae DT; [22]): 0.78 µg/mL
- Minimum inhibitory concentration [6]: 12.5 µg/mL
- Minimum inhibitory concentration [7]: 3.13 µg/mL
- Minimum inhibitory concentration [8]: 3.13 µg/mL
- Minimum inhibitory concentration [9, 24]: 1.56 µg/mL
- Minimum inhibitory concentration (Escherichia coli T-7): >100 µg/mL
- Minimum inhibitory concentration [10]: 0.39 µg/mL
- Minimum inhibitory concentration (Candida albicans TA): >100 µg/mL
- Minimum inhibitory concentration [11]: 3.13 µg/mL
- Minimum inhibitory concentration [12]: >100 µg/mL
- Minimum inhibitory concentration [13]: 0.78 µg/mL
- Minimum inhibitory concentration [14]: 3.13 µg/mL
- Minimum inhibitory concentration [15]: 50 µg/mL
- Minimum inhibitory concentration [16]: 3.13 µg/mL
- Minimum inhibitory concentration [17]: 3.13 µg/mL
- Minimum inhibitory concentration (Escherichia coli O—111): 0.2 µg/mL
- Minimum inhibitory concentration [18]: 25 µg/mL
- Minimum inhibitory concentration [19]: 1.56 µg/mL
- Minimum inhibitory concentration ([20]; medium B—TSA): 6.25 µg/mL
- Minimum inhibitory concentration ([20]; medium TSA): 6.25 µg/mL

SMILES: CCN1CCN(C(=O)N[C@@H](C(=O)NC2(OC)CN(S(=O)(=O)O)C2=O)c2ccccc2)C(=O)C1=O (single isomer, unassigned) [Compound C, Sodium 3-[D(-)-N-(4-ethyl-2,3-dioxo-1-piperazinocarbonyl)phenylglycinamido]-3-methoxy-2-oxoazetidine-1-sulphonate]
- MIC ([3]; Proteus vulgaris, IFO3988, read-out: Minimum inhibitory concentration): 12.5 µg/mL
- MIC (Klebsiella pneumoniae DT; Klebsiella pneumoniae): 12.5 µg/mL
- MIC [6]: > 100 µg/mL
- MIC [9, 24]: 50 µg/mL
- MIC [10]: 50 µg/mL
- MIC (Candida albicans TA): > 100 µg/mL
- MIC [12]: > 100 µg/mL
- MIC [13]: 50 µg/mL
- MIC [14]: 50 µg/mL
- MIC [16]: 50 µg/mL
- MIC [17]: > 100 µg/mL
- MIC (Escherichia coli O—111): 12.5 µg/mL
- MIC [19]: 50 µg/mL
- MIC ([20]; medium TSA): 100 µg/mL

SMILES: CCCCCCCCN1CCN(C(=O)NC(C(=O)NC2CN(S(=O)(=O)[O-])C2=O)c2cccs2)C(=O)C1=O.[Na+] (stereo not shown) [Compound J, Sodium 3-[2-(4-n-octyl-2,3-dioxo-1-piperazinocarboxamido)-2-thienylacetamido]-2-oxoazetidine-1-sulphonate]
- Minimum inhibitory concentration [1]: >100 µg/mL
- Minimum inhibitory concentration [2]: 25 µg/mL
- Minimum inhibitory concentration [3, 23]: 1.56 µg/mL
- Minimum inhibitory concentration [4]: 1.56 µg/mL
- Minimum inhibitory concentration [5]: >100 µg/mL
- Minimum inhibitory concentration (Klebsiella pneumoniae DT; [22]): 1.56 µg/mL
- Minimum inhibitory concentration [6]: 1.56 µg/mL
- Minimum inhibitory concentration [7]: 3.13 µg/mL
- Minimum inhibitory concentration [8]: 6.25 µg/mL
- Minimum inhibitory concentration [9, 24]: 1.56 µg/mL
- Minimum inhibitory concentration (Escherichia coli T-7): >100 µg/mL
- Minimum inhibitory concentration [10]: 0.78 µg/mL
- Minimum inhibitory concentration (Candida albicans TA): >100 µg/mL
- Minimum inhibitory concentration [11]: 1.56 µg/mL
- Minimum inhibitory concentration [12]: 25 µg/mL
- Minimum inhibitory concentration [13]: 3.13 µg/mL
- Minimum inhibitory concentration [14]: 1.56 µg/mL
- Minimum inhibitory concentration [15]: 6.25 µg/mL
- Minimum inhibitory concentration [16]: 1.56 µg/mL
- Minimum inhibitory concentration [17]: 6.25 µg/mL
- Minimum inhibitory concentration [18]: 6.25 µg/mL
- Minimum inhibitory concentration [19]: 3.13 µg/mL
- Minimum inhibitory concentration ([20]; medium B—TSA): 3.13 µg/mL
- Minimum inhibitory concentration ([20]; medium TSA): 1.56 µg/mL
